Data taken from patent US8044052B2, “Biaryl ether urea compounds” (Pfizer Inc., priority 2006, dated 2011).

The compounds below were run against T1, Human FAAH (Homo sapiens, UniProt O00519) (assay: FAAH assay (glutamate dehydrogenase-coupled, oleamide substrate, absorbance at 340 nm)). Conditions: irreversible inhibition, 1-4 nM FAAH, pH 7.4, 30° C., 90 min.
T1 construct: made in house
T1 sequence (O00519 1-579): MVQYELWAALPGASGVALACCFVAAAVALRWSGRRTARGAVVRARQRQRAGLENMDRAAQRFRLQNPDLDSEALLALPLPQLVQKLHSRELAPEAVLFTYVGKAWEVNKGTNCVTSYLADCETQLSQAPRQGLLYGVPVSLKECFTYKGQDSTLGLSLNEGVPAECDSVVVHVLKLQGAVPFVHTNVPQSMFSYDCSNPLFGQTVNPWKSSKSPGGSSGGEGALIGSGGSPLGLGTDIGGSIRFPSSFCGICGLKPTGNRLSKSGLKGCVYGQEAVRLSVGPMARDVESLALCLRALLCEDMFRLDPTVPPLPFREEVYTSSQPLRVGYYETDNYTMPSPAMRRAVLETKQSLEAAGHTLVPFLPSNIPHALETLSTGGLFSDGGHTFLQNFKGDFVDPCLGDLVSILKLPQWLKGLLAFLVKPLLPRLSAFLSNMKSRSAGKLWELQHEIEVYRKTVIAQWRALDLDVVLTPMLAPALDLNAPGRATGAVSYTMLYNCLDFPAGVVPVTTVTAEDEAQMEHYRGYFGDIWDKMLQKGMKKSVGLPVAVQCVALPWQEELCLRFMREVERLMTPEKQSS
Assay type: biochemical
Experimental: The FAAH assay was carried out in 384-well clear polystyrene plates in a total volume of 50 μl per well. All percents are by volume. To each well, was placed the reaction mixture (40 μl) containing 1-4 nM FAAH, 50 mM NaPi, pH 7.4, 3 mM α-ketoglutarate, 0.15 mM NADH, 7.5 U/ml glutamate dehydrogenase, 2 mM ADP, 1 mM EDTA, and 0.1% Triton X-100 (The concentration shown for each component is the final concentration in the assay). […] This was immediately followed by the addition of 5 μl oleamide (500 μM) dissolved in 75% EtOH/25% DMSO and the reaction mixture was mixed for 1.5 min. The final concentrations of DMSO and EtOH in the assay were each 7.5%.
Initial velocity data (V) were obtained from the slopes of the initial progressive curves. They were plotted as a function of substrate concentration and fit to the Michaelis-Menten equation (1) using Prism (GraphPad Software, Inc., San Diego, Calif.) software to obtain Km and Vmax values.
To obtain potencies of irreversible inhibitors, progressive curves consistent with first order inhibition kinetics (two-step irreversible inhibition mechanism) were fit to equation (2) by nonlinear least squares regressions to determine kobs values at each inhibitor concentration, where [P]t is the absorbance at time t, V0 is a constant related to the steady state rate of the uninhibited reaction, and kobs is the first order rate constant for enzyme inactivation. The inhibitor dissociation constant (Ki) and the first order rate
[formula] constant of enzyme inactivation at infinite inhibitor concentration (kinact) were then obtained by fitting the kobs vs. [I] curves to equation (3).

Structure (SMILES) | hFAAH kinact/Ki
O=C(Nc1cccnc1)N1CCC(=Cc2cccc(Oc3ccc(C(F)(F)F)cc3)c2)CC1 [Example 53] | 4520 M⁻¹ s⁻¹

Same assay, conditions: irreversible inhibition, 1-4 nM FAAH, pH 7.4, 30° C., 90 min, read-out: hFAAH kinact/Ki

kinact/KI | Structure (SMILES)
6190 M⁻¹ s⁻¹ | O=C(Nc1ccc(Br)nc1)N1CCC(=Cc2cccc(Oc3ccc(C(F)(F)F)cn3)c2)CC1 [Example 28, 4-(3-(5-(trifluoromethyl)pyridin-2-yloxy)benzylidene)-N-(6-bromopyridin-3-yl)piperidine-1-carboxamide]
3370 M⁻¹ s⁻¹ | O=C(Nc1ccccc1F)N1CCC(=Cc2cccc(Oc3ccc(C(F)(F)F)cn3)c2)CC1 [Example 29, 4-(3-(5-(trifluoromethyl)pyridin-2-yloxy)benzylidene)-N-(2-fluorophenyl)piperidine-1-carboxamide]
3540 M⁻¹ s⁻¹ | N#Cc1ccc(Oc2cccc(C=C3CCN(C(=O)Nc4cccnc4)CC3)c2)nc1 [Example 30, 4-(3-(5-cyanopyridin-2-yloxy)benzylidene)-N-(pyridin-3-yl)piperidine-1-carboxamide]
26300 M⁻¹ s⁻¹ | O=C(Nc1cccnc1)N1CCC(=Cc2cccc(Oc3ccc(Br)cn3)c2)CC1 [Example 33, 4-{3-[(5-bromopyridin-2-yl)oxy]benzylidene}-N-pyridin-3-ylpiperidine-1-carboxamide]
50900 M⁻¹ s⁻¹ | O=C(Nc1cccnn1)N1CCC(=Cc2cccc(Oc3ccc(Br)cn3)c2)CC1 [Example 34, 4-(3-(5-bromopyridin-2-yloxy)benzylidene)-N-(pyridazin-3-yl)piperidine-1-carboxamide]
3670 M⁻¹ s⁻¹ | Cc1noc(NC(=O)N2CCC(=Cc3cccc(Oc4ccc(Br)cn4)c3)CC2)c1C [Example 35, 4-(3-(5-bromopyridin-2-yloxy)benzylidene)-N-(3,4-dimethylisoxazol-5-yl)piperidine-1-carboxamide]
5070 M⁻¹ s⁻¹ | O=C(Nc1cccnc1)N1CCC(=Cc2cccc(Oc3ncc(Br)cn3)c2)CC1 [Example 36, 4-(3-(5-bromopyrimidin-2-yloxy)benzylidene)-N-(pyridin-3-yl)piperidine-1-carboxamide]
15100 M⁻¹ s⁻¹ | O=C(Nc1cccnn1)N1CCC(=Cc2cccc(Oc3ncc(Br)cn3)c2)CC1 [Example 37, 4-(3-(5-bromopyrimidin-2-yloxy)benzylidene)-N-(pyridazin-3-yl)piperidine-1-carboxamide]
9180 M⁻¹ s⁻¹ | O=C(Nc1cccnc1)N1CCC(=Cc2cccc(Oc3ccc(C4CC4)cn3)c2)CC1 [Example 38, 4-(3-(5-cyclopropylpyridin-2-yloxy)benzylidene)-N-(pyridin-3-yl)piperidine-1-carboxamide]
18200 M⁻¹ s⁻¹ | O=C(Nc1cccnn1)N1CCC(=Cc2cccc(Oc3ccc(C4CC4)cn3)c2)CC1 [Example 39, 4-(3-(5-cyclopropylpyridin-2-yloxy)benzylidene)-N-(pyridazin-3-yl)piperidine-1-carboxamide]
554 M⁻¹ s⁻¹ | Cc1cccc(Oc2cccc(C=C3CCN(C(=O)Nc4cccnc4)CC3)c2)n1 [Example 40, 4-(3-(6-methylpyridin-2-yloxy)benzylidene)-N-(pyridin-3-yl)piperidine-1-carboxamide]
687 M⁻¹ s⁻¹ | Cc1cccc(Oc2cccc(C=C3CCN(C(=O)Nc4cccnn4)CC3)c2)n1 [Example 41, 4-(3-(6-methylpyridin-2-yloxy)benzylidene)-N-(pyridazin-3-yl)piperidine-1-carboxamide]
834 M⁻¹ s⁻¹ | Cc1cccnc1Oc1cccc(C=C2CCN(C(=O)Nc3cccnc3)CC2)c1 [Example 42, 4-(3-(3-methylpyridin-2-yloxy)benzylidene)-N-(pyridin-3-yl)piperidine-1-carboxamide]
1410 M⁻¹ s⁻¹ | Cc1cccnc1Oc1cccc(C=C2CCN(C(=O)Nc3cccnn3)CC2)c1 [Example 43, 4-(3-(3-methylpyridin-2-yloxy)benzylidene)-N-(pyridazin-3-yl)piperidine-1-carboxamide]
12800 M⁻¹ s⁻¹ | Cc1ccc(Oc2cccc(C=C3CCN(C(=O)Nc4cccnn4)CC3)c2)nc1 [Example 45, 4-(3-(5-methylpyridin-2-yloxy)benzylidene)-N-(pyridazin-3-yl)piperidine-1-carboxamide]
3700 M⁻¹ s⁻¹ | Cc1ccc(Oc2cccc(C=C3CCN(C(=O)Nc4onc(C)c4C)CC3)c2)nc1 [Example 46, 4-(3-(5-methylpyridin-2-yloxy)benzylidene)-N-(3,4-dimethylisoxazol-5-yl)piperidine-1-carboxamide]
4490 M⁻¹ s⁻¹ | CCOc1ccc(Oc2cccc(C=C3CCN(C(=O)Nc4cccnc4)CC3)c2)nc1 [Example 47, 4-(3-(5-ethoxypyridin-2-yloxy)benzylidene)-N-(pyridin-3-yl)piperidine-1-carboxamide]
5830 M⁻¹ s⁻¹ | CCOc1ccc(Oc2cccc(C=C3CCN(C(=O)Nc4cccnn4)CC3)c2)nc1 [Example 48, 4-(3-(5-ethoxypyridin-2-yloxy)benzylidene)-N-(pyridazin-3-yl)piperidine-1-carboxamide]
6560 M⁻¹ s⁻¹ | O=C(Nc1cccnc1)N1CCC(=Cc2cccc(Oc3ccc(OCC(F)(F)F)cn3)c2)CC1 [Example 49, 4-(3-(5-(2,2,2-trifluoroethoxy)pyridin-2-yloxy)benzylidene)-N-(pyridin-3-yl)piperidine-1-carboxamide]
5670 M⁻¹ s⁻¹ | O=C(Nc1cccnn1)N1CCC(=Cc2cccc(Oc3ccc(OCC(F)(F)F)cn3)c2)CC1 [Example 50, 4-(3-(5-(2,2,2-trifluoroethoxy)pyridin-2-yloxy)benzylidene)-N-(pyridazin-3-yl)piperidine-1-carboxamide]
4330 M⁻¹ s⁻¹ | CC(C)Oc1ccc(Oc2cccc(C=C3CCN(C(=O)Nc4cccnc4)CC3)c2)nc1 [Example 51, 4-(3-(5-isopropoxypyridin-2-yloxy)benzylidene)-N-(pyridin-3-yl)piperidine-1-carboxamide]
4090 M⁻¹ s⁻¹ | CC(C)Oc1ccc(Oc2cccc(C=C3CCN(C(=O)Nc4cccnn4)CC3)c2)nc1 [Example 52, 4-(3-(5-isopropoxypyridin-2-yloxy)benzylidene)-N-(pyridazin-3-yl)piperidine-1-carboxamide]
12000 M⁻¹ s⁻¹ | O=C(Nc1cccnn1)N1CCC(=Cc2cccc(Oc3ccc(C(F)(F)F)cc3)c2)CC1 [Example 54, 4-(3-(4-(trifluoromethyl)phenoxy)benzylidene)-N-(pyridazin-3-yl)piperidine-1-carboxamide]
1610 M⁻¹ s⁻¹ | Cc1noc(NC(=O)N2CCC(=Cc3cccc(Oc4ccc(C(F)(F)F)cc4)c3)CC2)c1C [Example 55, 4-(3-(4-(trifluoromethyl)phenoxy)benzylidene)-N-(3,4-dimethylisoxazol-5-yl)piperidine-1-carboxamide]
3580 M⁻¹ s⁻¹ | Cc1ccc(NC(=O)N2CCC(=Cc3cccc(Oc4ccc(C(F)(F)F)cc4)c3)CC2)cn1 [Example 56, 4-(3-(4-(trifluoromethyl)phenoxy)benzylidene)-N-(6-methylpyridin-3-yl)piperidine-1-carboxamide]
16800 M⁻¹ s⁻¹ | O=C(Nc1cccnn1)N1CCC(=Cc2cccc(Oc3ccc(C(F)(F)F)nc3)c2)CC1 [Example 57, 4-(3-(6-(trifluoromethyl)pyridin-3-yloxy)benzylidene)-N-(pyridazin-3-yl)piperidine-1-carboxamide]
322 M⁻¹ s⁻¹ | CCOc1cc(C=C2CCN(C(=O)Nc3cccnc3)CC2)cc(Oc2ccc(C(F)(F)F)cn2)c1 [Example 58, 4-(3-ethoxy-5-(5-(trifluoromethyl)pyridin-2-yloxy)benzylidene)-N-(pyridin-3-yl)piperidine-1-carboxamide]
260 M⁻¹ s⁻¹ | O=C(Nc1cccnc1)N1CCC(=Cc2ccc(Cl)c(Oc3ccc(C(F)(F)F)cn3)c2)CC1 [Example 59, 4-(4-chloro-3-(5-(trifluoromethyl)pyridin-2-yloxy)benzylidene)-N-(pyridin-3-yl)piperidine 1-carboxamide]
1580 M⁻¹ s⁻¹ | Cc1ccc(C=C2CCN(C(=O)Nc3cccnc3)CC2)cc1Oc1ccc(C(F)(F)F)cn1 [Example 60, 4-(4-methyl-3-(5-(trifluoromethyl)pyridin-2-yloxy)benzylidene)-N-(pyridin-3-yl)piperidine-1-carboxamide]
2130 M⁻¹ s⁻¹ | Cc1cc(C=C2CCN(C(=O)Nc3cccnc3)CC2)cc(Oc2ccc(C(F)(F)F)cn2)c1 [Example 61, 4-(3-methyl-5-(5-(trifluoromethyl)pyridin-2-yloxy)benzylidene)-N-(pyridin-3-yl)piperidine-1-carboxamide]
